Test results taken from patent US9409952B2, “Peptide-compound cyclization method” (Chugai Seiyaku Kabushiki Kaisha, priority 2011, dated 2016).
Like-named read-outs stand apart in the source and are kept apart here. Starred links: 1 amine or outer side, 2 acyl side, 3 side chain; linkers in the order of their positions; H or OH if unused. Positions of bridges follow the written chain, without caps; N, C: chain ends. Non-standard residues stand in square brackets, D forms with d. Residues, ends and D or L forms follow the SMILES beside them. *: point of attachment. Phe(4-CF3) = N[C@@H](Cc1ccc(C(F)(F)F)cc1)C(=O)O; NMeF = CN[C@@H](Cc1ccccc1)C(=O)O; NMeGABA = CN(CCCC(=O)[*:2])[*:1]; NMeI = CC[C@H](C)[C@H](NC)C(=O)O; NMeβAla = CN(CCC(=O)[*:2])[*:1]; NMeL = CN[C@@H](CC(C)C)C(=O)O; NMeV = CN[C@H](C(=O)O)C(C)C; NMeA = CN[C@@H](C)C(=O)O; Piperidide = C1CCN(*)CC1; dNMeA = CN[C@H](C)C(=O)O; β3hA = C[C@H](N)CC(=O)O; Sar = CNCC(=O)O; tBu = CC(C)(C)*

Experiments:
[1] = PAMPA (parallel artificial membrane permeability assay); type: in vitro ADME; details: PAMPA
In short: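 Artificial membrane was 10% (w/v) egg lecithin plus 0.5% (w/v) cholesterol in dodecane on a PVDF filter. A 10 mM DMSO stock was added at 0.5% (v/v) to donor buffer (50 mM MOPSO, pH 6.5, 5.0% glycocholic acid). After 18 h at 37 °C, LC/MS or LC/UV gave donor and acceptor levels for Pe.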

[2] = Metabolic stability in human hepatic microsome; type: in vitro ADME; details: microsomes
[3] = membrane permeation rate (Pe), 50 mM MOPSO buffer pH 6.5 with 5.0% glycocholic acid, 37° C., 18 hours, read-out: iPAMPA Pe
[4] = pH 7.4, human hepatic microsome, NADPH(+), read-out: CL NADPH(+)

Row | SMILES | Papp at 18 hours, 50 µM ([1]; pH 6.5) [×10⁻⁶ cm/s] | microsomal CLint at 1 uM ([2]; human, pH 7.4, CL NADPH(+)) [µL/min/mg] | Papp at 18 hours, 50 µM [1, 3] [×10⁻⁶ cm/s] | microsomal CLint at 1 uM [2, 4] [µL/min/mg]
1 | CC(C)C[C@H]1C(=O)N(C)[C@@H](C)C(=O)N[C@@H]([C@@H](C)O)C(=O)N(C)[C@@H](C)C(=O)N(C)[C@@H](C(C)C)C(=O)N[C@@H](COC(C)(C)C)C(=O)N[C@H](C(=O)N2CCCCC2)CC(=O)N(C)[C@H](C)C(=O)N(C)[C@@H](Cc2ccccc2)C(=O)N[C@@H](C)C(=O)N(C)[C@@H](C)C(=O)N[C@@H](Cc2ccccc2)C(=O)N1C [DP-409] ([dNMeA][NMeF]A[NMeA]F[NMeL][NMeA]T[NMeA][NMeV]S(tBu)D-Piperidide; lactam N-12) | 13 | 28 | – | –
2 | CC(C)C[C@H]1C(=O)N(C)[C@@H](C(C)C)C(=O)N[C@@H](C(C)C)C(=O)N(C)CC(=O)N(C)[C@@H](C)C(=O)N[C@@H]([C@@H](C)O)C(=O)N(C)[C@@H](C)C(=O)N[C@H](C(=O)N2CCCCC2)CC(=O)N(C)[C@@H](C)C(=O)N(C)[C@@H](C)C(=O)N(C)[C@@H](Cc2ccccc2)C(=O)N[C@@H](C)C(=O)N1C [DP-410] ([NMeA][NMeA][NMeF]A[NMeL][NMeV]V[Sar][NMeA]T[NMeA]D-Piperidide; lactam N-12) | – | – | 1.4 | 19
3 | CC[C@H](C)[C@H]1C(=O)NCC(=O)N(C)[C@@H](CC(C)C)C(=O)N[C@@H](CC(C)C)C(=O)N[C@H](C(=O)N2CCCCC2)CC(=O)N(C)CCC(=O)N(C)[C@@H](C)C(=O)N[C@@H](CC(C)C)C(=O)N[C@@H]([C@@H](C)O)C(=O)N2CCC[C@H]2C(=O)N[C@@H](Cc2ccccc2)C(=O)N(C)[C@@H](Cc2ccccc2)C(=O)N1C [DP-91] ([NMeβAla][NMeA]LTPF[NMeF][NMeI]G[NMeL]LD-Piperidide; lactam N-12) | 20 | 58 | – | –
4 | CC(C)C[C@H]1C(=O)NCC(=O)N[C@H](C(=O)N(C)[C@@H](Cc2ccccc2)C(=O)N(C)[C@@H](Cc2ccccc2)C(=O)N[C@@H](C)C(=O)N2CCCCC2)CC(=O)N[C@H](C(C)C)C(=O)N[C@@H]([C@@H](C)O)C(=O)N(C)[C@@H](C)C(=O)N(C)[C@@H](Cc2ccccc2)C(=O)N[C@@H](C(C)C)C(=O)N(C)[C@@H](Cc2ccccc2)C(=O)N1C [DP-401] ([dV]T[NMeA][NMeF]V[NMeF][NMeL]GD[NMeF][NMeF]A-Piperidide; lactam N-9) | 8.6 | 145 | – | –
5 | CC(C)C[C@H]1C(=O)N[C@H](C(=O)N2CCCCC2)CC(=O)N(C)CCCC(=O)N(C)[C@@H](Cc2ccccc2)C(=O)N[C@@H]([C@@H](C)O)C(=O)N(C)[C@@H](CC(C)C)C(=O)N[C@@H](COC(C)(C)C)C(=O)N1C [DP-681] ([NMeGABA][NMeF]T[NMeL]S(tBu)[NMeL]D-Piperidide; lactam N-7) | – | – | 28 | 275
6 | CC(C)C[C@@H]1NC(=O)[C@H](CC(C)C)N(C)C(=O)[C@H]([C@@H](C)O)NC(=O)CCCN(C)C(=O)C[C@@H](C(=O)N2CCCCC2)NC(=O)[C@H](COC(C)(C)C)NC(=O)[C@H](Cc2ccccc2)N(C)C1=O [DP-715] ([NMeGABA]T[NMeL]L[NMeF]S(tBu)D-Piperidide; lactam N-7) | – | – | 24 | 134
7 | CC[C@H](C)[C@@H]1NC(=O)[C@H](C)NC(=O)C[C@H](C)NC(=O)[C@H](CC(C)C)NC(=O)[C@H](CC(C)C)NC(=O)[C@H](C(C)C)NC(=O)[C@H](C)N(C)C(=O)[C@H](Cc2ccc(C(F)(F)F)cc2)NC(=O)CNC(=O)[C@H]([C@@H](C)O)NC(=O)[C@H](CC(C)C)N(C)C(=O)[C@@H]2CCCN2C1=O [DP-807] (cyclo(AIP[NMeL]TG[Phe(4-CF3)][NMeA]VLL[β3hA])) | 15 | 81 | – | –
8 | CC(C)C[C@H]1C(=O)N[C@H](C(=O)N(C)[C@@H](Cc2ccccc2)C(=O)N[C@@H](C)C(=O)N2CCCCC2)CC(=O)N(C)[C@@H](C)C(=O)N[C@@H]([C@@H](C)O)C(=O)N(C)[C@@H](C)C(=O)N(C)[C@@H](CC(C)C)C(=O)N[C@@H](C(C)C)C(=O)N(C)[C@@H](Cc2ccccc2)C(=O)N[C@@H](Cc2ccccc2)C(=O)N1C [DP-386] ([NMeA]T[NMeA][NMeL]V[NMeF]F[NMeL]D[NMeF]A-Piperidide; lactam N-9) | – | – | 54 | 222
9 | CC[C@H](C)[C@@H]1NC(=O)[C@H](Cc2ccccc2)N(C)C(=O)[C@H](CC(C)C)N(C)C(=O)[C@H](Cc2ccccc2)NC(=O)[C@H](C)N(C)C(=O)[C@H]([C@@H](C)O)NC(=O)CCN(C)C(=O)C[C@@H](C(=O)N2CCCCC2)NC(=O)[C@H](CC(C)C)N(C)C(=O)[C@H](C(C)C)N(C)C1=O [DP-427] ([NMeβAla]T[NMeA]F[NMeL][NMeF]I[NMeV][NMeL]D-Piperidide; lactam N-10) | – | – | 37 | 141
10 | CC(C)C[C@H]1C(=O)N[C@@H]([C@@H](C)O)C(=O)N(C)[C@@H](Cc2ccccc2)C(=O)N(C)[C@@H](CC(C)C)C(=O)NCC(=O)N(C)[C@@H](C(C)C)C(=O)N[C@@H](Cc2ccccc2)C(=O)N[C@H](C(=O)N(C)[C@@H](Cc2ccccc2)C(=O)N[C@@H](C)C(=O)N2CCCCC2)CC(=O)N(C)CC(=O)N[C@@H](C(C)C)C(=O)N1C [DP-304] ([Sar]V[NMeL]T[NMeF][NMeL]G[NMeV]FD[NMeF]A-Piperidide; lactam N-10) | 35 | 212 | – | –
11 | CC[C@H](C)[C@H]1C(=O)N[C@@H](Cc2ccccc2)C(=O)N(C)[C@@H](CC(C)C)C(=O)N[C@@H](CC(C)C)C(=O)N[C@H](C(=O)N2CCCCC2)CC(=O)N(C)[C@H](C)C(=O)N[C@@H](CC(C)C)C(=O)N(C)[C@@H](C)C(=O)N2CCC[C@H]2C(=O)N[C@@H]([C@@H](C)O)C(=O)N(C)[C@@H](Cc2ccccc2)C(=O)NCC(=O)N1C [DP-224] ([dNMeA]L[NMeA]PT[NMeF]G[NMeI]F[NMeL]LD-Piperidide; lactam N-12) | 18 | 18 | – | –
12 | CC[C@H](C)[C@@H]1NC(=O)[C@H](C)N(C)C(=O)[C@H]([C@@H](C)O)NC(=O)[C@H](C(C)C)N(C)C(=O)[C@@H](C)N(C)C(=O)C[C@H](C)NC(=O)[C@H](Cc2ccccc2)NC(=O)[C@H](C)NC(=O)[C@H](Cc2ccccc2)N(C)C1=O [DP-819] (cyclo(AF[β3hA][dNMeA][NMeV]T[NMeA]I[NMeF])) | – | – | 30 | 134
13 | CC(C)C[C@H]1C(=O)N[C@@H](COC(C)(C)C)C(=O)N[C@H](C(=O)N2CCCCC2)CC(=O)N[C@H](C)C(=O)N(C)[C@@H](Cc2ccccc2)C(=O)N(C)[C@@H](CC(C)C)C(=O)N[C@@H]([C@@H](C)O)C(=O)N(C)CC(=O)N1C [DP-528] ([dA][NMeF][NMeL]T[Sar][NMeL]S(tBu)D-Piperidide; lactam N-8) | – | – | 13 | 55
14 | CC[C@H](C)[C@@H]1NC(=O)[C@H](Cc2ccccc2)N(C)C(=O)CN(C)C(=O)[C@H]([C@@H](C)O)NC(=O)[C@H](CC(C)C)NC(=O)[C@H](CC(C)C)N(C)C(=O)[C@H](C)N(C)C(=O)CCCN(C)C(=O)C[C@@H](C(=O)N2CCCCC2)NC(=O)[C@H](Cc2ccccc2)N(C)C(=O)[C@H](C(C)C)N(C)C1=O [DP-477] ([NMeGABA][NMeA][NMeL]LT[Sar][NMeF]I[NMeV][NMeF]D-Piperidide; lactam N-11) | – | – | 29 | 30
15 | C=C1CCC(=O)N[C@@H](CC(C)C)C(=O)N(C)[C@@H](CC(C)C)C(=O)N(C)[C@@H]([C@@H](C)CC)C(=O)N[C@@H](C)C(=O)N(C)[C@@H](Cc2ccccc2)C(=O)N[C@@H]([C@@H](C)O)C(=O)N(C)CC(=O)N(C)[C@@H](Cc2ccccc2)C(=O)N(C)[C@@H](CC(C)C)C(=O)N[C@H](C(=O)N2CCCCC2)Cc2ccc1cc2 [DP-864] | – | – | 2.3 | 171
16 | CNC(=O)CC[C@@H]1NC(=O)[C@H](CC(C)C)N(C)C(=O)[C@H](C)N(C)C(=O)[C@H](CC(C)C)N(C)C(=O)[C@H](Cc2ccccc2)NC(=O)[C@H](Cc2ccccc2)N(C)C(=O)[C@H](CC(C)C)NC(=O)[C@H](CC(C)C)N(C)C(=O)[C@H](C)N(C)C(=O)[C@@H](C(C)C)NC(=O)C[C@@H](C(=O)N2CCCCC2)NC1=O [DP-626] ([dV][NMeA][NMeL]L[NMeF]F[NMeL][NMeA][NMeL]E(NHMe)D-Piperidide; lactam N-11) | – | – | 36 | 28
17 | CC(C)C[C@H]1C(=O)N[C@@H](COC(C)(C)C)C(=O)N[C@H](C(=O)N2CCCCC2)CC(=O)N(C)[C@@H](C)C(=O)N(C)[C@@H](Cc2ccccc2)C(=O)N(C)[C@@H](CC(C)C)C(=O)N[C@@H]([C@@H](C)O)C(=O)N(C)CC(=O)N1C [DP-523] ([NMeA][NMeF][NMeL]T[Sar][NMeL]S(tBu)D-Piperidide; lactam N-8) | – | – | 20 | 99
18 | CC(C)C[C@H]1C(=O)N[C@@H](COC(C)(C)C)C(=O)N(C)[C@@H](CC(C)C)C(=O)N[C@H](C(=O)N2CCCCC2)CC(=O)N[C@H](C)C(=O)N(C)[C@@H](C)C(=O)N(C)[C@@H](Cc2ccccc2)C(=O)N(C)[C@@H](CC(C)C)C(=O)N[C@@H]([C@@H](C)O)C(=O)N(C)CC(=O)N1C [DP-170] ([dA][NMeA][NMeF][NMeL]T[Sar][NMeL]S(tBu)[NMeL]D-Piperidide; lactam N-10) | – | – | 43 | 22
19 | CC[C@H](C)[C@H]1C(=O)N[C@@H](CC(C)C)C(=O)N2CCC[C@H]2C(=O)N[C@@H]([C@@H](C)O)C(=O)N(C)[C@@H](C)C(=O)N[C@@H](Cc2ccccc2)C(=O)N[C@H](C(=O)N2CCCCC2)CC(=O)N(C)[C@@H](C)C(=O)N[C@@H](Cc2ccccc2)C(=O)N(C)[C@@H](CC(C)C)C(=O)N[C@@H](COC(C)(C)C)C(=O)NCC(=O)N1C [DP-57] ([NMeA]F[NMeL]S(tBu)G[NMeI]LPT[NMeA]FD-Piperidide; lactam N-12) | 26 | 23 | – | –
